From publication PMC3071371, “Trypanosoma brucei Glycogen Synthase Kinase-3, A Target for Anti-Trypanosomal Drug Development: A Public-Private Partnership to Identify Novel Leads” (PLoS Neglected Tropical Diseases, 2011)
“Also recorded” adds a separate entry of the source.

How the values were obtained:
[1] = Cytotoxicity against MRC-5 cell line, resazurin; type: cell-based, human; settings: human, MRC-5 fetal lung fibroblast cells; 72 hours incubation
Procedure: (§1) Compounds with TbruGSK-3 short IC50<100 nM were tested for their ability to inhibit the proliferation of T. brucei (blood stage form). Cytotoxicity testing against human fetal lung fibroblast MRC-5 cell line was also performed. Both assays were carried out with compound concentrations up to 64 µM at the Laboratory for Microbiology, Parasitology and Hygiene, University of Antwerp (www.ua.ac.be). Briefly, T. brucei trypomastigotes (Squib-427 strain, suramin-sensitive) were cultured in Hirumi-9 medium supplemented with 10% fetal calf serum at 1.5×10^4 trypomastigotes per well. Following 72 hours incubation, parasite growth was assessed fluorimetrically by addition of resazurin. For cytotoxicity evaluation, 10^4 MRC-5 cells/well were seeded onto the test plates containing the pre-diluted compounds and incubated at 37°C with 5% CO2 for 72 hours. Cell viability was determined fluorimetrically after addition of resazurin [24], [25]. Single point kinase panel screening was also conducted on selected compounds at 10 µM by Invitrogen (www.Invitrogen.com) and University of Dundee, UK (www.dundee.ac.uk).

[2] = target: T1, TbruGSK-3 short (Trypanosoma brucei brucei, UniProt Q388M1); experiment: TbruGSK-3 short Kinase-Glo luminescent ATP depletion assay; type: biochemical; settings: mean of at least 2 replicates; 2 µM ATP; read-out: Tbru GSK-3 short IC50
T1 construct: made in house
T1 sequence (Q388M1 1-352): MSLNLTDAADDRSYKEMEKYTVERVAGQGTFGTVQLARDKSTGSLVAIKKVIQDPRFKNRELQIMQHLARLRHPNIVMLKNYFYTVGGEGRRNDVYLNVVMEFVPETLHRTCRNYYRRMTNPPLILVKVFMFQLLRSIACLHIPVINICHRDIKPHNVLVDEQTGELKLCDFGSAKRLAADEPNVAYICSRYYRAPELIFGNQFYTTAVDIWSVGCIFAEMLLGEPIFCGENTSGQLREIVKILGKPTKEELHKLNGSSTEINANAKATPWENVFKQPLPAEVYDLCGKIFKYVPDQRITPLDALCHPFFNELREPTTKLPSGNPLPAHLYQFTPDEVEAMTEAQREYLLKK
Source text: Recombinant TbruGSK-3 short (accession number Tb10.161.3140) was produced at the University of Washington and shipped to Pfizer, Sandwich, UK for testing. Kinase-Glo reagent (Promega) was used as previously described. This luciferase coupled assay, which provides a luminescent quantification of ATP […] during the kinase reaction, was modified to a 384-well plate screening format. A selected library of 16,540 compounds comprising known HsGSK-3 beta inhibitors and close structural analogues was screened at 10 µM final assay concentration. Assay plates were prepared by dispensing 0.2 µL of compound (dissolved in 100% DMSO) from master plates into white 384-well plates (Greiner bio one). Primary screening was conducted in a 20 µL reaction volume. Enzyme was added to each well to a final concentration of 3.8 nM in a volume of 10 µl using a Multidrop Combi dispenser (Thermo Scientific) and the plates were incubated for 15 minutes at room temperature (RT). Glycogen synthase peptide 2 (BioGSP2; Sigma) and ATP, were dissolved in 20% acetonitrile and 1 M Tris-HCl pH 7.6 respectively, then diluted in assay buffer to a final concentration of 3.2 µM BioGSP2 and 2 µM ATP. The assay buffer consisted of 25 mM Tris-HCl pH 7.5, 10 mM MgCl2, 5 mM DTT, 0.1 mg/mL BSA, 2 U/mL Heparin and 10 µM EDTA. The reaction was initiated by adding 10 µL of the substrate mixture to each well and allowed to proceed at RT for 2 h. Twenty microlitres of Kinase-Glo reagent was added to quench the reaction. Luminescence was measured after 1 h at a 100 millisecond/well integration time using the Acquest Multimode plate reader (Molecular Devices). Each plate included a positive control (4 µM GW8510, Sigma) and negative control (1% DMSO). […] The data was analysed using Pfizer SIGHTS software and visualised using Spotfire software (TIBCO). Five separate 384-well plates were screened in duplicate to assess the assay reproducibility.

[3] = tested on: T. brucei trypomastigotes (Squib-427 strain); experiment: T. brucei blood stage proliferation, resazurin; type: cell-based; settings: Trypanosoma brucei; blood stage form, 72 hours incubation; read-out: Tbru parasite EC50
Procedure: as §1

[4] = target: T2, HsGSK-3 beta (Homo sapiens, UniProt P49841); experiment: Human GSK-3 beta inhibition (Pfizer data files or Omnia Kinase Assay); type: biochemical; settings: recovered from Pfizer data files or Omnia Kinase Assay, mean of at least 2 replicates
T2 construct: purchased Invitrogen
T2 sequence (P49841 whole entry): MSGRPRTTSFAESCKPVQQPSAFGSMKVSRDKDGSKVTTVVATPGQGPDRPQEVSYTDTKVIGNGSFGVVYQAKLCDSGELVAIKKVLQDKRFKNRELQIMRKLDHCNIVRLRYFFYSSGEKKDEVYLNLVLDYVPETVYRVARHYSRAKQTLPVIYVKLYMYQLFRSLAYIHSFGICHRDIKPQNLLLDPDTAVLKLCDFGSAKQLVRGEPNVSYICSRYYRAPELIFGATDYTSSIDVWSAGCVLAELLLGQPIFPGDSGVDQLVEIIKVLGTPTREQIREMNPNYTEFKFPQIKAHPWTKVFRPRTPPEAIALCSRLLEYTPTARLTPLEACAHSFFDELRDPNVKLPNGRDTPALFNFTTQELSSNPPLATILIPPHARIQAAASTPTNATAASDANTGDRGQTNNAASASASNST
Procedure: Human GSK-3 beta inhibition data (IC50) for many of the compounds were recovered from Pfizer data files. If historical data were not available, the compounds were tested in an assay using 10 nM HsGSK-3 beta (Invitrogen) using Omnia Kinase Assay (Invitrogen) according to the manufacturer's instructions. The reaction volume was 20 µL and a range of compound concentrations were tested, up to a maximum of 40 µM. Briefly, 5 µl of HsGSK-3 beta was dispensed into black 384 assay plates (Greiner bio one) containing 0.2 µl of compounds. The enzyme was incubated with the compounds for 15 minutes at 30°C then 15 µl of substrate mixture was added to each well to commence the reaction. The substrate mixture consisted of 2 µL each of 2× kinase reaction buffer, 10 µM Omina peptide substrate, 0.2 mM DTT and 10 µM ATP, and 7 µL of ultra pure water. The reaction was allowed to proceed for 30 minutes at 30°C. Increase in fluorescence levels indicating peptide phosphorylation by the enzyme was monitored using an Envision (PerkinElmer) with λex 360/λem 485 nm and the data were analysed using Pfizer software SIGHTS and Spotfire (TIBCO).

[5] = tested on: CaCo2 cell; experiment: CaCo2 cell flux assay; type: in vitro ADME; settings: data not shown
[6] = tested on: panel of approximately 40 human kinases; experiment: Single point human kinase panel screening; type: biochemical; settings: 10 µM
Procedure: as §1

[7] = tested on: human fetal lung fibroblast MRC-5 cell line; experiment: Cytotoxicity against MRC-5 cell line, resazurin; type: cell-based; settings: ratio of EC50s
Procedure: as §1

Row | SMILES | EC50 at 72 h [1] [µM] | IC50 [2] [µM] | EC50 [3] [µM] | IC50 [4] [µM] | cell permeability in CaCo2 cell flux assay [5] | human kinase panel specificity (in words) [6] | selectivity window between T. brucei activity and activity on MRC5 cells [7] [fold] | number of other kinases with >50% inhibition [6]
1 | CS(=O)(=O)c1ccc(S(=O)(=O)Nc2ccc3c(Cl)c(C(=O)N4CCc5ccccc5C4)sc3c2)cc1 [AG-02449] | 0.62 | 0.069 | 0.13 | – | – | – | – | –
2 | CNCc1cncc(-c2ccc3[nH]nc(-c4nc5ccccc5[nH]4)c3c2)c1C [AG-024290] | 0.13 | 0.062 | 0.13 | 0.173 | – | – | – | –
3 | CCc1nn(CCC(=O)Nc2cc([C@H]3C[C@@H](NC(C)=O)C3)[nH]n2)c2ccccc12 [CE-160042] | – | 0.142 | > 25 | 0.032 | no detectable cell permeability | highly specific and only inhibited HsGSK-3 beta; also recorded: no significant inhibition of any other kinases | – | –
4 | CCCC1=C(C#N)C(c2cccc3nonc23)c2cn[nH]c2N1 (centres unmarked) [CE-309608] | 16 | 0.021 | 2.69 | 0.046 | – | – | – | –
5 | O=C(NC1CCN(C(=O)Cc2ccccc2)C1)c1ccc2[nH]nc(-c3nc4ccccc4[nH]3)c2c1 (centres unmarked) [CE-317112] | 39.4 | 0.099 | 1.14 | 0.003 | – | – | 35 | –
6 | CC(C)C(=O)Nc1cc([C@H]2C[C@@H](OC(=O)NCc3ccccc3Cl)C2)[nH]n1 [CE-324998] | 1.22 | 0.093 | 0.23 | 0.001 | – | – | – | –
7 | CC(C)C(=O)Nc1cc([C@H]2C[C@@H](OC(=O)NCc3cccc(C(F)(F)F)c3F)C2)[nH]n1 [CE-325011] | 2.32 | 0.094 | 1.05 | 0.005 | – | – | – | –
8 | CC(C)C(=O)Nc1cc([C@H]2C[C@@H](OC(=O)N(C)Cc3ccccc3)C2)[nH]n1 [CE-325692] | 4.67 | 0.065 | 0.64 | 0.002 | – | – | – | –
9 | CCC(C(=O)Nc1cc([C@H]2C[C@@H](OC(=O)NCc3ccccn3)C2)[nH]n1)c1ccccc1 (some centres unmarked) [PF-00305135] | 0.93 | 0.067 | 2.45 | 0.003 | – | – | – | –
10 | CN(C)C[C@@H](NC(=O)c1ccc2[nH]nc(-c3nc4ccccc4[nH]3)c2c1)c1ccccc1 [PF-00744923] | 0.13 | 0.07 | 0.13 | < 1 | – | – | – | –
11 | Cc1cc2nc(N3CCc4nc[nH]c(=O)c4C3)nc(Nc3cc(C4CC4)[nH]n3)c2s1 [PF-00956933] | 2.17 | 0.057 | 0.13 | < 1 | – | – | – | –
12 | Cc1cc(Nc2cc[nH]n2)nc(N(C)CCc2ccncc2)n1 [PF-01242377] | 1.18 | 0.061 | 0.13 | 0.132 | – | – | – | –
13 | CNC(=O)[C@@H]1CCCN1c1nc(Cc2cccc(C#N)c2)cc(Nc2cc(C3CC3)[nH]n2)n1 [PF-02368935] | 0.13 | 0.019 | 0.13 | < 1 | – | – | – | –
14 | O=C(NCc1ccccc1)O[C@H]1C[C@@H](c2cc(NC(=O)C3CCCCC3)n[nH]2)C1 [PF-04279731] | 1.47 | 0.062 | 1.23 | 0.001 | – | – | – | 2
15 | O=C1NCCc2[nH]c(-c3ccnc(Nc4ccc(-n5cccn5)cc4)c3)cc21 [PF-04903528] | 1.13 | 0.032 | 1.13 | 0.236 | – | – | – | –
16 | O=c1ccc2cnc(Nc3ccccc3)nc2n1C1CC2CCC1C2 (centres unmarked) [compound 0180532] | – | 7.27 | – | 0.06 | – | – | – | 4
17 | O=c1ccc2cnc(Nc3ccc(N4CCC(CCCO)CC4)cc3)nc2n1C1CCCC1 [compound 0181276] | – | 0.6 | – | 4.29 | – | relatively specific against the wider human kinase panel | – | –
